According to patent US11987648B2, “Cyclohexapeptides as selective somatostatin SST5 receptor agonists” (Heptares Therapeutics Limited, priority 2018, dated 2024):
*1 amine or outer side, *2 acyl side, *3 side chain or, on linkers, in order; H or OH if unused. Where a SMILES comes first, the peptide text is derived from it. Side-chain parts run from the residue outwards. [ ]: non-standard residue; d: D form. The star is where a group is joined. Ala(piperidin-4-yl) = O=C([C@H](CC1CCN([*:3])CC1)N[*:1])[*:2]; dTrp(4-OMe) = COc1cccc2[nH]cc(C[C@@H](N)C(=O)O)c12; dTrp(5-OMe) = COc1ccc2[nH]cc(C[C@@H](N)C(=O)O)c2c1; Ala(piperazin-1-yl) = N[C@@H](CN1CCNCC1)C(=O)O; Phe(3-Cl) = N[C@@H](Cc1cccc(Cl)c1)C(=O)O; Phe(4-Cl) = N[C@@H](Cc1ccc(Cl)cc1)C(=O)O; Morpholine(3S-CO) = O=C(O)[C@@H]1COCCN1; Ethylenediamine = C(CN[*:2])N[*:1]; d(hPhe) = N[C@H](CCc1ccccc1)C(=O)O; Hyp = O=C(O)[C@@H]1C[C@@H](O)CN1; hPhe = N[C@@H](CCc1ccccc1)C(=O)O; 3Pal = N[C@@H](Cc1cccnc1)C(=O)O; Cyclohexylmethyl = C1CCC(C*)CC1; Tic = O=C(O)[C@@H]1Cc2ccccc2CN1; Benzyl(4-Cl) = Clc1ccc(C*)cc1; X6 = Clc1cccc(Cl)c1C*; CO = O=C([*:1])[*:2]; Bn = c1ccc(C*)cc1; X1 = C1CCC(C*)C1; X4 = C1CC(C*)C1

Legend:
SST2 = SST2 (Homo sapiens, UniProt P30874); test: Hit Hunter cAMP XS+ assay, SST2 activation via Gi (reduction of forskolin-stimulated cAMP); type: cell-based; settings: for Emax: read-out: SST2 (EMax); for EC50: reduction of forskolin-stimulated cAMP, 4-parameter logistic fit, read-out: SST2 pEC50 (converted)
Method: (§1) A Hit Hunter® cAMP XS+ assay was used to monitor activation of the SST2 and SST5 via the Gi G protein. Cells were pre-stimulated with forskolin to elicit a cAMP response and the potency and efficacy of somatostatin agonists to reduce cAMP was measured. Briefly cells (10,000 cells/well) were incubated (37° C.; 30 min) with compound ([…]) in media (2:1 HBSS/11 mM Hepes: cAMP XS+Ab reagent) in the presence of EC80 forskolin ([…] and 15 μM SST5). Signal was detected through incubation with 20 μL cAMP XS+ED/CL lysis cocktail ([…]; RT) followed by incubation with […] cAMP XS+EA reagent (180 min; RT). Microplates were read with a PerkinElmer Envision™ instrument for chemiluminescent signal detection.

SST5 = SST5 (Homo sapiens, UniProt P35346); test: Hit Hunter cAMP XS+ assay, SST5 activation via Gi (reduction of forskolin-stimulated cAMP); type: cell-based; settings: for Emax: read-out: SST5 (EMax); for EC50: reduction of forskolin-stimulated cAMP, 4-parameter logistic fit, read-out: SST5 pEC50 (converted); for SST5/2 Selectivity: selectivity for SST5 over SST2
Method: as §1

Chain of SST5 (P35346 whole entry): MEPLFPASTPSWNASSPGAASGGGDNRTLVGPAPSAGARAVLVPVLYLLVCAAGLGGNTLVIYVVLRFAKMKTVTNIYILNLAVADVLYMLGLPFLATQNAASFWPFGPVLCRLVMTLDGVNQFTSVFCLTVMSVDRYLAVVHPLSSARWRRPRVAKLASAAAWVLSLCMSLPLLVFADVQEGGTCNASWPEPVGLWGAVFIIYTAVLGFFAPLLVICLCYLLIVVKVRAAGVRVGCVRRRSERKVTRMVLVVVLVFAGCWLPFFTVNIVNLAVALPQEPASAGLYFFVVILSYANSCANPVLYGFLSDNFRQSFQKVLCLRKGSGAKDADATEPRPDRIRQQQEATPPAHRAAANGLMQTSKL
Chain of SST2 (P30874 whole entry): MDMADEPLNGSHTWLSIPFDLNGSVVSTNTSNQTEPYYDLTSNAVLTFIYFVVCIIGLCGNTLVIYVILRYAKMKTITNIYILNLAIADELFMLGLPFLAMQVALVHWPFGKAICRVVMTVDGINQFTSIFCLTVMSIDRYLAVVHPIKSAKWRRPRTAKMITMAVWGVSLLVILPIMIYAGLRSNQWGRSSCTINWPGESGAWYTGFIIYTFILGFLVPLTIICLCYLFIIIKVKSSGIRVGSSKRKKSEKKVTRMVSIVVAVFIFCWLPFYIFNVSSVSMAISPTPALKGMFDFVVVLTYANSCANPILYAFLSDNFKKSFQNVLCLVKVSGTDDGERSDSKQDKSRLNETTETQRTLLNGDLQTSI

Row | Emax (SST2) [%] | EC50 (SST2) [nM] | Emax (SST5) [%] | EC50 (SST5) [nM] | SST5/2 Selectivity (SST5) | SMILES
1 | 100 | 398 | 107 | 0.398 | 1104.6 | COc1ccc2[nH]cc(C[C@H]3NC(=O)[C@H](CCc4ccccc4)NC(=O)[C@@H]4C[C@@H](OC(=O)NCCN)CN4C(=O)[C@H](Cc4cccnc4)NC(=O)[C@H](Cc4ccc(OCc5ccccc5)cc4)NC(=O)[C@H](CC4CCNCC4)NC3=O)c2c1 [Example 39] (cyclo([3Pal][Hyp]([CO-Ethylenediamine])[hPhe][dTrp(5-OMe)][Ala(piperidin-4-yl)]Y(Bn)))
2 | 91.2 | 316 | 106 | 2.51 | 126.6 | NCCNC(=O)O[C@@H]1C[C@H]2C(=O)N[C@@H](CCc3ccccc3)C(=O)N[C@H](Cc3c[nH]c4ccccc34)C(=O)N[C@@H](CC3CCNCC3)C(=O)N[C@@H](Cc3ccc(OCc4ccc(Cl)cc4)cc3)C(=O)N[C@@H](Cc3cccnc3)C(=O)N2C1 [Example 40] (cyclo([3Pal][Hyp]([CO-Ethylenediamine])[hPhe][dW][Ala(piperidin-4-yl)]Y(Benzyl(4-Cl))))
3 | 100 | 200 | 108 | 0.794 | 226.4 | NCCNC(=O)O[C@@H]1C[C@H]2C(=O)N[C@@H](CCc3ccccc3)C(=O)N[C@H](Cc3c[nH]c4ccccc34)C(=O)N[C@@H](CC3CCNCC3)C(=O)N[C@@H](Cc3ccc(OCc4c(Cl)cccc4Cl)cc3)C(=O)N[C@@H](Cc3cccnc3)C(=O)N2C1 [Example 47] (cyclo([3Pal][Hyp]([CO-Ethylenediamine])[hPhe][dW][Ala(piperidin-4-yl)]Y(X6)))
4 | 98.9 | 501 | 103 | 3.16 | 143.3 | NCCNC(=O)O[C@@H]1C[C@H]2C(=O)N[C@@H](CCc3ccccc3)C(=O)N[C@H](Cc3c[nH]c4ccccc34)C(=O)N[C@@H](CC3CCNCC3)C(=O)N[C@@H](Cc3ccc(OCC4CCCC4)cc3)C(=O)N[C@@H](Cc3cccnc3)C(=O)N2C1 [Example 49] (cyclo([3Pal][Hyp]([CO-Ethylenediamine])[hPhe][dW][Ala(piperidin-4-yl)]Y(X1)))
5 | 95.4 | 631 | 103 | 15.8 | 41.1 | NCCNC(=O)O[C@@H]1C[C@H]2C(=O)N[C@@H](CCc3ccccc3)C(=O)N[C@H](Cc3c[nH]c4ccccc34)C(=O)N[C@@H](CC3CCNCC3)C(=O)N[C@@H](Cc3ccc(OCC4CCC4)cc3)C(=O)N[C@@H](Cc3cccnc3)C(=O)N2C1 [Example 50] (cyclo([3Pal][Hyp]([CO-Ethylenediamine])[hPhe][dW][Ala(piperidin-4-yl)]Y(X4)))
6 | 96.8 | 398 | 107 | 0.158 | 2108.2 | NCCNC(=O)O[C@@H]1C[C@H]2C(=O)N[C@@H](CCc3ccccc3)C(=O)N[C@H](Cc3c[nH]c4ccccc34)C(=O)N[C@@H](CN3CCNCC3)C(=O)N[C@@H](Cc3ccc(OCC4CCCCC4)cc3)C(=O)N[C@@H](Cc3cccnc3)C(=O)N2C1 [Example 52] (cyclo([3Pal][Hyp]([CO-Ethylenediamine])[hPhe][dW][Ala(piperazin-1-yl)]Y(Cyclohexylmethyl)))
7 | 50.9 | > 10000 | 103 | 31.6 | 293.1 | NCCNC(=O)O[C@@H]1C[C@H]2C(=O)N[C@H](CCc3ccccc3)C(=O)N[C@H](Cc3c[nH]c4ccccc34)C(=O)N[C@@H](CC3CCNCC3)C(=O)N[C@@H](Cc3ccc(OCC4CCCCC4)cc3)C(=O)N[C@@H](Cc3cccnc3)C(=O)N2C1 [Example 53] (cyclo([3Pal][Hyp]([CO-Ethylenediamine])[d(hPhe)][dW][Ala(piperidin-4-yl)]Y(Cyclohexylmethyl)))
8 | 96.2 | 631 | 104 | 0.501 | 1083.5 | NCCNC(=O)O[C@@H]1C[C@H]2C(=O)N[C@@H](CCc3ccccc3)C(=O)N[C@H](Cc3c[nH]c4ccccc34)C(=O)N[C@@H](CC3CCNCC3)C(=O)N[C@@H](Cc3ccc(OCC4CCCCC4)cc3)C(=O)N[C@@H](Cc3cccnc3)C(=O)N2C1 [Example 54] (cyclo([3Pal][Hyp]([CO-Ethylenediamine])[hPhe][dW][Ala(piperidin-4-yl)]Y(Cyclohexylmethyl)))

Continued, molecule first:

Row | SMILES | Emax (SST2) [%] | EC50 (SST2) [nM] | Emax (SST5) [%] | EC50 (SST5) [nM] | SST5/2 Selectivity (SST5)
9 | NCCNC(=O)O[C@@H]1C[C@H]2C(=O)N[C@H](CCc3ccccc3)C(=O)N[C@H](Cc3c[nH]c4ccccc34)C(=O)N[C@@H](CC3CCNCC3)C(=O)N[C@@H](Cc3ccc(OCc4ccccc4)cc3)C(=O)N[C@@H](Cc3ccccc3)C(=O)N2C1 [Example 38] (cyclo(F[Hyp]([CO-Ethylenediamine])[d(hPhe)][dW][Ala(piperidin-4-yl)]Y(Bn))) | 82.7 | 2510 | 103 | 12.6 | 171.5
10 | NCCNC(=O)O[C@@H]1C[C@H]2C(=O)N[C@@H](CCc3ccccc3)C(=O)N[C@H](Cc3c[nH]c4ccccc34)C(=O)N[C@@H](CC3CCNCC3)C(=O)N[C@@H](Cc3ccc(OCc4ccccc4)cc3)C(=O)N[C@@H](Cc3cccc(Cl)c3)C(=O)N2C1 [Example 41] (cyclo([Hyp]([CO-Ethylenediamine])[hPhe][dW][Ala(piperidin-4-yl)]Y(Bn)[Phe(3-Cl)])) | 102 | 7.94 | 104 | 0.158 | 51.0
11 | NCCNC(=O)O[C@@H]1C[C@H]2C(=O)N[C@@H](CCc3ccccc3)C(=O)N[C@H](Cc3c[nH]c4ccccc34)C(=O)N[C@@H](CC3CCNCC3)C(=O)N[C@@H](Cc3ccc(OCc4ccccc4)cc3)C(=O)N[C@@H](Cc3ccc(Cl)cc3)C(=O)N2C1 [Example 42] (cyclo([Hyp]([CO-Ethylenediamine])[hPhe][dW][Ala(piperidin-4-yl)]Y(Bn)[Phe(4-Cl)])) | 99.3 | 12.6 | 104 | 0.251 | 45.1
12 | COc1ccc(C[C@@H]2NC(=O)[C@H](Cc3ccc(OCc4ccccc4)cc3)NC(=O)[C@H](CC3CCNCC3)NC(=O)[C@@H](Cc3c[nH]c4ccccc34)NC(=O)[C@H](CCc3ccccc3)NC(=O)[C@@H]3C[C@@H](OC(=O)NCCN)CN3C2=O)cc1 [Example 43] (cyclo([Hyp]([CO-Ethylenediamine])[hPhe][dW][Ala(piperidin-4-yl)]Y(Bn)Y(Me))) | 101 | 31.6 | 107 | 0.316 | 94.3
13 | NCCNC(=O)O[C@@H]1C[C@H]2C(=O)N[C@@H](CCc3ccccc3)C(=O)N[C@H](Cc3c[nH]c4ccccc34)C(=O)N[C@@H](CC3CCNCC3)C(=O)N[C@@H](Cc3ccc(OCC4CCCCC4)cc3)C(=O)N3Cc4ccccc4C[C@H]3C(=O)N2C1 [Example 44] (cyclo([Hyp]([CO-Ethylenediamine])[hPhe][dW][Ala(piperidin-4-yl)]Y(Cyclohexylmethyl)[Tic])) | 75.3 | 794 | 105 | 1 | 823.8
14 | O=C1N[C@@H](Cc2ccc(OCc3ccccc3)cc2)C(=O)N2Cc3ccccc3C[C@H]2C(=O)N2CCOC[C@H]2C(=O)N[C@@H](CCc2ccccc2)C(=O)N[C@H](Cc2c[nH]c3ccccc23)C(=O)N[C@H]1CC1CCNCC1 [Example 45] (cyclo([Tic][Morpholine(3S-CO)][hPhe][dW][Ala(piperidin-4-yl)]Y(Bn))) | 100 | 158 | 100 | 0.398 | 430.7
15 | COc1cccc2[nH]cc(C[C@H]3NC(=O)[C@H](CCc4ccccc4)NC(=O)[C@@H]4COCCN4C(=O)[C@@H]4Cc5ccccc5CN4C(=O)[C@H](Cc4ccc(OCc5ccccc5)cc4)NC(=O)[C@H](CC4CCNCC4)NC3=O)c12 [Example 46] (cyclo([Tic][Morpholine(3S-CO)][hPhe][dTrp(4-OMe)][Ala(piperidin-4-yl)]Y(Bn))) | 98.6 | 39.8 | 102 | 0.0794 | 527.6
16 | NCCNC(=O)O[C@@H]1C[C@H]2C(=O)N[C@@H](CCc3ccccc3)C(=O)N[C@H](Cc3c[nH]c4ccccc34)C(=O)N[C@@H](CN3CCNCC3)C(=O)N[C@@H](Cc3ccc(OCc4ccccc4)cc3)C(=O)N[C@@H](Cc3cccc(Cl)c3)C(=O)N2C1 [Example 48] (cyclo([Hyp]([CO-Ethylenediamine])[hPhe][dW][Ala(piperazin-1-yl)]Y(Bn)[Phe(3-Cl)])) | 100 | 2 | 103 | 0.02 | 106.6
17 | NCCNC(=O)O[C@@H]1C[C@H]2C(=O)N[C@@H](CCc3ccccc3)C(=O)N[C@H](Cc3c[nH]c4ccccc34)C(=O)N[C@@H](CN3CCNCC3)C(=O)N[C@@H](Cc3ccc(OCc4ccccc4)cc3)C(=O)N[C@@H](Cc3ccc(Cl)cc3)C(=O)N2C1 [Example 51] (cyclo([Hyp]([CO-Ethylenediamine])[hPhe][dW][Ala(piperazin-1-yl)]Y(Bn)[Phe(4-Cl)])) | 100 | 5.01 | 106 | 0.0794 | 64.3
